Results: ChEMBL document CHEMBL1126780, “Selective non-nucleoside HIV-1 reverse transcriptase inhibitors. New 2,3-dihydrothiazolo[2,3-a]isoindol-5(9bH)-ones and related compounds with anti-HIV-1 activity” (J Med Chem, 1993)
Where a name gives a salt, the structure may show the parent alone.

Legend:
[1] = biological target: Human immunodeficiency virus type 1 reverse transcriptase (Human immunodeficiency virus 1, UniProt Q72547); test: Inhibitory activity against HIV-1 reverse transcriptase (HIV-RT)
[2] = system: MT2; test: Inhibitory concentration which prevents the spread of HIV-1 IIIB infection in MT2 T-lymphoid cells; format: functional, cell-based; settings: Homo sapiens

Compound | IC50 [1] | IC50 [2]
Cc1ccc(C)c(C23SCCN2C(=O)c2ccccc23)c1 (stereo not given) | 0.97 µM | 
O=C1c2ccncc2C2(c3ccccc3)SCCN12 (stereo not given) | 17 µM | 
O=C1c2ccccc2[C@]2(c3ccccc3)SCCN12 | 39.6 µM | 
O=C1c2ccc(C(F)(F)F)cc2C2(c3ccccc3)SCCN12 (stereo not given) | 17.7 µM | 
O=C1c2ccccc2C2(c3cccc(O)c3)SCCN12 (stereo not given) | 12.7 µM | 
O=C1c2ccccc2C2(c3ccccc3)SCCCN12 (stereo not given) | 2.2 µM | 
NC(=O)[C@H]1CSC2(c3ccccc3)c3ccccc3C(=O)N12 (stereo not given in full) | 59 µM | 
Cc1ccc(C23SCCN2C(=O)c2ccccc23)cc1 (stereo not given) | 0.77 µM | 
O=C1c2ccccc2C2(c3cccc([N+](=O)[O-])c3)SCCN12 (stereo not given) | 0.86 µM | 
Cc1ccnc(C23SCCN2C(=O)c2ccccc23)c1 (stereo not given) | 1 µM | 
O=C1c2ccccc2C2(c3cccnc3)SCCN12 (stereo not given) | 28 µM | 
Cc1cccc(C23SCCN2C(=O)c2ccccc23)c1C (stereo not given) | 1.65 µM | 
O=C1c2ccccc2C2(c3ccco3)SCCN12 (stereo not given) | 1.35 µM | 
S=C1c2ccccc2C2(c3ccccc3)SCCN12 (stereo not given) | 3.5 µM | 
O=C1c2ccccc2C2(c3ccccc3)OCCN12 (stereo not given) | 6.1 µM | 
COc1ccc2c(c1)C(=O)N1CCSC21c1ccccc1 (stereo not given) | 4 µM | 
Cc1ccnc(C23SCCN2C(=O)c2cccnc23)c1 (stereo not given) | 4.6 µM | 7.8 µM
Cc1ccc2c(c1)C1(c3ccccc3)SCCN1C2=O (stereo not given) | 0.72 µM | 
O=C1c2cccnc2C2(c3ccccn3)SCCN12 (stereo not given) | 23 µM | 
O=C1c2ccccc2C2(c3ccccn3)SCCN12 (stereo not given) | 5.85 µM | 
O=C1c2ccccc2C2(c3cc(Cl)cc(Cl)c3)SCCN12 (stereo not given) | 0.59 µM | 

Compound | IC50 [1] | IC50 [2]
O=C1c2ccccc2C2(c3cccc4c3CCC4)SCCN12 (stereo not given) | 0.9 µM | 
O=C1c2ccccc2[C@@]2(c3cccc4ccccc34)SCCN12 | 0.15 µM | 0.046 µM
C[C@H]1CN2C(=O)c3ccccc3C2(c2ccccc2)O1 (stereo not given in full) | > 100 µM | 
Cc1cc(C)cc([C@]23SCCN2C(=O)c2ccccc23)c1 | 0.016 µM | 0.01 µM
O=C1c2cc(Cl)ccc2C2(c3ccccc3)SCCN12 (stereo not given) | 24 µM | 
O=C1c2ccccc2C2(c3ccccc3)NCCCN12 (stereo not given) | > 10 µM | 
COc1ccc2c(c1)C1(c3ccccc3)SCCN1C2=O (stereo not given) | 3.6 µM | 
Cc1ccc(C23SCCN2C(=O)c2ccccc23)cc1C (stereo not given) | 0.39 µM | 
O=C1c2ccccc2C2(c3ccccc3)OCCCN12 (stereo not given) | 51 µM | 
COc1cccc(C23SCCN2C(=O)c2ccccc23)c1 (stereo not given) | 0.97 µM | 
O=C1c2ccccc2C2(c3ccccc3)SCCN12 (stereo not given) | 0.7 µM | 
Cc1cccc([C@]23SCCN2C(=O)c2ccccc23)c1 | 0.035 µM | 0.051 µM
CC(C)c1cccc(C23SCCN2C(=O)c2ccccc23)c1 (stereo not given) | 2.1 µM | 
CC(C)=CCN1Cc2cccc3[nH]c(=S)n(c23)C[C@@H]1C |  | 0.217 µM
O=C1c2ccccc2C2(c3ccccc3)CCCN12 (stereo not given) | 15 µM | 
O=C1c2cc(Cl)c(Cl)cc2C2(c3ccccc3)SCCN12 (stereo not given) | 4.48 µM | 
O=C1c2cc3ccccc3cc2C2(c3ccccc3)SCCN12 (stereo not given) | 10 µM | 
O=C1c2c(ccc3ccccc23)C2(c3ccccc3)SCCN12 (stereo not given) | > 100 µM | 
O=C1c2cccc(Cl)c2C2(c3ccccc3)SCCN12 (stereo not given) | 0.29 µM | 
O=C1c2ccccc2C2(c3ccc(Cl)c(Cl)c3)SCCN12 (stereo not given) | 4 µM | 
O=C1c2ccc(Cl)cc2C2(c3ccccc3)SCCN12 (stereo not given) | 0.19 µM | 

Compound | IC50 [1] | IC50 [2]
Cc1cccc(C23SCCN2C(=O)c2cccnc23)n1 (stereo not given) | 6.6 µM | 
O=C1c2ccc([N+](=O)[O-])cc2C2(c3ccccc3)SCCN12 (stereo not given) | 10 µM | 
O=C1c2ccccc2C2(c3c4ccccc4cc4ccccc34)SCCN12 (stereo not given) | 0.9 µM | 
O=C1c2ccccc2C2(c3cccc(Cl)c3)SCCN12 (stereo not given) | 0.14 µM | 
O=C1c2ccc(Cl)cc2[C@@]2(c3ccccc3)SCCN12 | 0.09 µM | 0.074 µM
CC(C)c1ccc(C23SCCN2C(=O)c2ccccc23)cc1 (stereo not given) | 10 µM | 
Cc1ccc2c(c1)C(=O)N1CCSC21c1ccccc1 (stereo not given) | 10 µM | 
O=C1c2ccccc2C2(c3ccc(Cl)cc3)SCCN12 (stereo not given) | 4 µM | 
Cc1cccc2c1C(=O)N1CCSC21c1ccccc1 (stereo not given) | 8 µM | 
O=C1c2ccccc2C2(c3ccc[nH]3)SCCN12 (stereo not given) | > 100 µM | 
COc1ccc(C23SCCN2C(=O)c2ccccc23)cc1 (stereo not given) | > 30 µM | 
O=C1c2cccnc2C2(c3ccccc3)SCCN12 (stereo not given) | 3.45 µM | 
O=C1c2cnccc2C2(c3ccccc3)SCCN12 (stereo not given) | > 100 µM | 
O=C(O)[C@H]1CSC2(c3ccccc3)c3ccccc3C(=O)N12 (stereo not given in full) | > 100 µM | 
C[C@@H]1COC2(c3ccccc3)c3ccccc3C(=O)N12 (stereo not given in full) | 40 µM | 
COC(=O)[C@H]1CSC2(c3ccccc3)c3ccccc3C(=O)N12 (stereo not given in full) | 0.22 µM | 
O=C1c2ccccc2C2(c3ccccc3)N1CCS2(=O)=O (stereo not given) | > 10 µM | 
N#Cc1cccc(C23SCCN2C(=O)c2ccccc23)c1 (stereo not given) | 1.81 µM | 
C[C@H]1COC2(c3ccccc3)c3ccccc3C(=O)N12 (stereo not given in full) | 73 µM | 
Cc1cc(C)cc(C23SCCN2C(=O)c2ccccc23)c1 (stereo not given) | 0.084 µM | 
O=C1c2ncccc2C2(c3ccccc3)SCCN12 (stereo not given) | > 100 µM | 

Compound | IC50 [1] | IC50 [2]
O=C1c2ccc3ccccc3c2C2(c3ccccc3)SCCN12 (stereo not given) | 26 µM | 
Cc1ccccc1C12SCCN1C(=O)c1ccccc12 (stereo not given) | 6.3 µM | 
O=C1c2ccccc2C2(c3cccs3)SCCN12 (stereo not given) | 2.65 µM | 
Cc1cccc(C23SCCN2C(=O)c2ccccc23)c1 (stereo not given) | 0.035 µM | 
O=C1c2ccccc2C2(c3ccccc3)Sc3ccccc3CN12 (stereo not given) | 40 µM | 
O=C1c2ccccc2C2(c3ccccc3)NCCN12 (stereo not given) | > 100 µM | 
O=C1c2ccccc2C2(c3ccccc3)CCCCN12 (stereo not given) | 75.5 µM | 
CCc1cccc(C23SCCN2C(=O)c2ccccc23)c1 (stereo not given) | 1.1 µM | 
Nc1ccc2c(c1)C1(c3ccccc3)SCCN1C2=O (stereo not given) | 4.5 µM | 
Cc1cccc(C23SCCN2C(=O)c2ccccc23)n1 (stereo not given) | 4.1 µM | 
O=C1c2ccccc2[C@@]2(c3ccccc3)SCCN12 | 0.28 µM | 0.392 µM
O=C1c2ccccc2C2(c3ccncc3)SCCN12 (stereo not given) | > 30 µM | 
O=C1c2ccccc2C2(c3ccccc3)N1CC[S+]2[O-] (stereo not given) | 1.45 µM | 
C[C@@H]1CN2C(=O)c3ccccc3C2(c2ccccc2)O1 (stereo not given in full) | 37.6 µM | 
Nc1cccc(C23SCCN2C(=O)c2ccccc23)c1 (stereo not given) | 4.6 µM | 
O=C1c2ccccc2C2(c3cccc4ccccc34)SCCN12 (stereo not given) | 0.13 µM | 
O=C1c2ccccc2C2(c3cccc(C(F)(F)F)c3)SCCN12 (stereo not given) | 1.05 µM | 
CCNc1cccnc1N1CCN(C(=O)c2cc3cc(OC)ccc3[nH]2)CC1 [ATEVIRDINE MESYLATE] |  | 1.59 µM
CCc1cc(NCc2nc3c(Cl)ccc(Cl)c3o2)c(O)nc1C [L-697661] | 0.001 µM | 0.08 µM
Cc1ccnc2c1NC(=O)c1cccnc1N2C1CC1 [NEVIRAPINE] |  | 0.303 µM
